Measurements published in patent US10076519B2 (CYTOKINETICS, INC., priority 2010, dated 2018).

System: rabbit skeletal myofibrils (fast skeletal myofibrils)
Assay: Activation of fast skeletal myofibrils (PUMA assay, PK/LDH-coupled ATPase at pCa25)
Assay type: biochemical
Summary of the method: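 ATPase activity of Triton-washed rabbit skeletal myofibrils, roughly 90% fast fibres, tracked by NADH loss at 340 nm through a PK/LDH-coupled ADP-regenerating system. Calcium set to 25% of maximal activity (pCa25), in PIPES 12 mM pH 6.8 with 2 mM MgCl2 and 1 mM DTT; AC1.4 reported.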

[1] = median AC1.4 reported as class, procedure of Example 39
[2] = median AC1.4 class, procedure of Example 39
[3] = AC1.4 determined according to the procedure of Example 39, reported as class symbols

| Compound | Mean AC1.4 [1] | Mean AC1.4 [2] | also measured |
| --- | --- | --- | --- |
| NC(=O)NC1CCc2nc(-c3ccc(NCC4(c5ncccc5F)CCC4)nn3)sc2C1 (centres unmarked) [amino-N-{2-[6-({[(3-fluoro(2-pyridyl))cyclobutyl]methyl}ami-no)pyridazin-3-yl](4,5,6,7-tetrahydrobenzothiazol-6-yl)}amide] | D (D=>20 uM) |  |  |
| NC(=S)c1cnc(-c2ccc(NCC3(c4ncccc4F)CCC3)nn2)s1 [amino{2-[6-({[(3-fluoro(2-pyridyl))cyclobutyl]methyl}ami-no)pyridazin-3-yl](1,3-thiazol-5-yl)}methane-1-thione] |  | A (A=<1 uM) |  |
| NS(=O)(=O)Nc1ccc(F)c(-c2ccc(NCC3(c4ncccc4F)CCC3)nn2)c1 [amino{4-fluoro-3-[6-({[(3-fluoro(2-pyridyl))cyclobutyl]methyl}ami-no)pyridazin-3-yl]phenyl}sulfonamide] |  | A (A=<1 uM) |  |
| CCOC(=O)C1(NC(=O)c2ccc(NCC(C)(C)c3ccc(F)cc3)nn2)CC1 [ethyl 1-[(6-{[2-(4-fluorophenyl)-2-methylpropyl]amino}pyridazin-3-yl)carbonylamino]cyclopropane-carboxylate] |  |  | Mean AC1.4 [3]: D (D=>20 uM) |
| CCOC(=O)Cc1csc(NC(=O)c2ccc(NCC3(c4ncccc4F)CCC3)nn2)n1 [ethyl 2-(2-{[6-({[(3-fluoro-2-pyridyl)cyclobutyl]methyl}ami-no)pyridazin-3-yl]carbonylamino}-1,3-thiazol-4-yl)acetate] | A (A=<1 uM) |  |  |
| CCOC(=O)Cc1nnc(NC(=O)c2ccc(NCC3(c4ncccc4F)CCC3)nn2)s1 [ethyl 2-(5-{[6-({[(3-fluoro-2-pyridyl)cyclobutyl]methyl}ami-no)pyridazin-3-yl]carbonylamino}-1,3,4-thiadiazol-2-yl)acetate] | D (D=>20 uM) |  |  |
| CCOC(=O)c1sc(-c2ccc(NCC3(c4ncccc4F)CCC3)nn2)nc1O [ethyl 2-[6-({[(3-fluoro(2-pyridyl))cyclobutyl]methyl}ami-no)pyridazin-3-yl]-4-hydroxy-1,3-thiazole-5-carboxylate] |  | D (D=>20 uM) |  |
| CCOC(=O)c1cc(-c2ccc(NCC(C)(C)c3ccc(F)cc3)nn2)ccc1F [ethyl 2-fluoro-5-(6-{[2-(4-fluorophenyl)-2-methylpropyl]amino}pyridazin-3-yl)benzoate] |  |  | Mean AC1.4 [3]: B (B=1-10 uM) |
| CCOC(=O)c1cc(-c2ccc(NC[C@]3(c4ncccc4F)C[C@H](F)C3)nn2)ccc1F [ethyl 2-fluoro-5-[6-({[3-fluoro-1-(3-fluoro(2-pyridyl))cyclobutyl]methyl}ami-no)pyridazin-3-yl]benzoate] |  | C (C=10-20 uM) |  |
| CCOC(=O)Cc1csc(-c2ccc(NCC3(c4ncccc4F)CCC3)nn2)n1 [ethyl 2-{2-[6-({[(3-fluoro-2-pyridyl)cyclobutyl]methyl}ami-no)pyridazin-3-yl]-1,3-thiazol-4-yl}acetate] | C (C=10-20 uM) |  |  |
| CCOC(=O)c1coc(NC(=O)c2ccc(NCC3(c4ncccc4F)CCC3)nn2)n1 [ethyl 2-{[6-({[(3-fluoro-2-pyridyl)cyclobutyl]methyl}ami-no)pyridazin-3-yl]carbonylamino}-1,3-oxazole-4-carboxylate] | D (D=>20 uM) |  |  |
| CCOC(=O)c1cnc(NC(=O)c2ccc(NCC3(c4ncccc4F)CCC3)nn2)s1 [ethyl 2-{[6-({[(3-fluoro-2-pyridyl)cyclobutyl]methyl}ami-no)pyridazin-3-yl]carbonylamino}-1,3-thiazole-5-carboxylate] | D (D=>20 uM) |  |  |
| CCOC(=O)CCc1ccc(NCC(C)(C)c2ccc(F)cc2)nn1 [ethyl 3-(6-{[2-(4-fluorophenyl)-2-methylpropyl]amino}pyridazin-3-yl)propanoate] |  |  | Mean AC1.4 [3]: D (D=>20 uM) |
| CCOC(=O)c1c(-c2ccc(NCC3(c4ncccc4F)CCC3)nn2)n[nH]c1O [ethyl 3-[6-({[(3-fluoro(2-pyridyl))cyclobutyl]methyl}ami-no)pyridazin-3-yl]-5-hydroxypyrazole-4-carboxylate] |  | D (D=>20 uM) |  |
| CCOC(=O)c1nc(NC(=O)c2ccc(NCC3(c4ncccc4F)CCC3)nn2)cn1C [ethyl 4-{[6-({[(3-fluoro(2-pyridyl))cyclobutyl]methyl}ami-no)pyridazin-3-yl]carbonylamino}-1-methylimidazole-2-carboxylate] | D (D=>20 uM) |  |  |
| CCOC(=O)c1cc(-c2ccc(NC[C@]3(c4ncccc4F)C[C@H](F)C3)nn2)ccc1NC [ethyl 5-[6-({[3-fluoro-1-(3-fluoro(2-pyridyl))cyclobutyl]methyl}ami-no)pyridazin-3-yl]-2-(methylamino)benzoate] | A (A=<1 uM) |  |  |
| CCOC(=O)c1nc(-c2cc(Cl)c(NCC3(c4ncccc4F)CCC3)nn2)sc1Cl [ethyl 5-chloro-2-[5-chloro-6-({[(3-fluoro(2-pyridyl))cyclobutyl]methyl}ami-no)pyridazin-3-yl]-1,3-thiazole-4-carboxylate] |  | D (D=>20 uM) |  |
| COC(=O)c1cn(C)c(-c2ccc(NCC3(c4ncccc4F)CCC3)nn2)n1 [methyl 2-[6-({[(3-fluoro(2-pyridyl))cyclobutyl]methyl}ami-no)pyridazin-3-yl]-1-methylimidazole-4-carboxylate] |  | D (D=>20 uM) |  |

| Compound | Mean AC1.4 [1] | Mean AC1.4 [2] | also measured |
| --- | --- | --- | --- |
| COC(=O)c1cnc(-c2ccc(NCC3(c4ncccc4F)CCC3)nn2)o1 [methyl 2-[6-({[(3-fluoro-2-pyridyl)cyclobutyl]methyl}ami-no)pyridazin-3-yl]-1,3-oxazole-5-carboxylate] |  | D (D=>20 uM) |  |
| COC(=O)c1csc(-c2ccc(NCC3(c4ncccc4F)CCC3)nn2)n1 [methyl 2-[6-({[(3-fluoro-2-pyridyl)cyclobutyl]methyl}ami-no)pyridazin-3-yl]-1,3-thiazole-4-carboxylate] |  | D (D=>20 uM) |  |
| COC(=O)c1c[nH]c(-c2ccc(NCC3(c4ncccc4F)CCC3)nn2)n1 [methyl 2-[6-({[(3-fluoro-2-pyridyl)cyclobutyl]methyl}ami-no)pyridazin-3-yl]imidazole-4-carboxylate] |  | D (D=>20 uM) |  |
| COC(=O)Cc1ccc(F)c(-c2ccc(NCC3(c4ncccc4F)CCC3)nn2)c1 [methyl 2-{4-fluoro-3-[6-({[(3-fluoro(2-pyridyl))cyclobutyl]methyl}ami-no)pyridazin-3-yl]phenyl}acetate] | B (B=1-10 uM) |  |  |
| COC(=O)c1csc(NC(=O)c2ccc(NCC3(c4ncccc4F)CCC3)nn2)n1 [methyl 2-{[6-({[(3-fluoro-2-pyridyl)cyclobutyl]methyl}ami-no)pyridazin-3-yl]carbonylamino}-1,3-thiazole-4-carboxylate] | B (B=1-10 uM) |  |  |
| COC(=O)N1CC(CNc2ccc(-c3ccc4[nH]ncc4c3)nn2)(c2ncccc2F)C1 [methyl 3-(3-fluoro(2-pyridyl))-3-{[(6-(1H-indazol-5-yl)pyridazin-3-yl)amino]methyl}azetidine-carboxylate] |  |  | Mean AC1.4 [3]: D (D=>20 uM) |
| COC(=O)N1CC(CNc2ccc(-c3cccc(C(N)=O)c3)nn2)(c2ncccc2F)C1 [methyl 3-({[6-(3-carbamoylphenyl)pyridazin-3-yl]amino}methyl)-3-(3-fluoro(2-pyridyl))azetidinecarboxylate] |  |  | Mean AC1.4 [3]: D (D=>20 uM) |
| COC(=O)c1cccc(-c2ccc(NC[C@]3(c4ncccc4F)C[C@H](F)C3)nn2)c1 [methyl 3-[6-({[3-fluoro-1-(3-fluoro(2-pyridyl))cyclobutyl]methyl}ami-no)pyridazin-3-yl]benzoate] |  | B (B=1-10 uM) |  |
| COC(=O)CCc1cnc(-c2ccc(NCC3(c4ncccc4F)CCC3)nn2)s1 [methyl 3-{2-[6-({[(3-fluoro-2-pyridyl)cyclobutyl]methyl}ami-no)pyridazin-3-yl]-1,3-thiazol-5-yl}propanoate] | B (B=1-10 uM) |  |  |
| COC(=O)c1ccc(F)c(-c2ccc(NC[C@]3(c4ncccc4F)C[C@H](F)C3)nn2)c1 [methyl 4-fluoro-3-[6-({[3-fluoro-1-(3-fluoro(2-pyridyl))cyclobutyl]methyl}ami-no)pyridazin-3-yl]benzoate] |  | B (B=1-10 uM) |  |
| COC(=O)c1cncc(-c2ccc(NCC(C)(C)c3ccc(F)cc3)nn2)c1 [methyl 5-(6-{[2-(4-fluorophenyl)-2-methylpropyl]amino}pyridazin-3-yl)pyridine-3-carboxylate] |  |  | Mean AC1.4 [3]: B (B=1-10 uM) |
| CNc1ccc(-c2ccc(NC[C@]3(c4ncccc4F)C[C@H](F)C3)nn2)cc1C(=O)OC [methyl 5-[6-({[3-fluoro-1-(3-fluoro(2-pyridyl))cyclobutyl]methyl}ami-no)pyridazin-3-yl]-2-(methylamino)benzoate] | B (B=1-10 uM) |  |  |
| COC(=O)c1cc2cc(-c3ccc(NC[C@]4(c5ncccc5F)C[C@H](F)C4)nn3)ccc2[nH]1 [methyl 5-[6-({[3-fluoro-1-(3-fluoro(2-pyridyl))cyclobutyl]methyl}ami-no)pyridazin-3-yl]indole-2-carboxylate] | A (A=<1 uM) |  |  |
| CC(C)OC(=O)c1ccc(F)c(-c2ccc(NC[C@]3(c4ncccc4F)C[C@H](F)C3)nn2)c1 [methylethyl 4-fluoro-3-[6-({[3-fluoro-1-(3-fluoro(2-pyridyl))cyclobutyl]methyl}ami-no)pyridazin-3-yl]benzoate] |  | B (B=1-10 uM) |  |
| O=C(CNC(=O)c1ccc(NCC2(c3ncccc3F)CCC2)nn1)OCc1ccccc1 [phenylmethyl 2-{[6-({[(3-fluoro-2-pyridyl)cyclobutyl]methyl}ami-no)pyridazin-3-yl]carbonylamino}acetate] |  | D (D=>20 uM) |  |
| CC(C)(C)OC(=O)N1CCN(C(=O)c2ccc(NCC(C)(C)c3ccc(F)cc3)nn2)CC1 [tert-butyl 4-[(6-{[2-(4-fluorophenyl)-2-methylpropyl]amino}pyridazin-3-yl)carbonyl]piperazinecarboxylate] |  |  | Mean AC1.4 [3]: D (D=>20 uM) |
| CC(C)(C)OC(=O)N1CCN(C(=O)c2cccc(-c3ccc(NCC(C)(C)c4ccc(F)cc4)nn3)c2)CC1 [tert-butyl 4-{[3-(6-{[2-(4-fluorophenyl)-2-methylpropyl]amino}pyridazin-3-yl)phenyl]carbonyl}piperazine-carboxylate] |  |  | Mean AC1.4 [3]: B (B=1-10 uM) |
